# pEC50: −log10 of the molar value.
# Tested on: not given
# Assay: not given
# Conditions: not given
row,Structure (SMILES),melting point [°C]
1,"Cc1cc(OS(C)(=O)=O)cc(C)c1-c1cccc(COc2ccc(CCC(=O)O)c(F)c2)c1 [Example 102, 3-[4-({2′,6′-dimethyl-4′-[(methylsulfonyl)oxy]biphenyl-3-yl}methoxy)-2-fluorophenyl]propanoic acid]",124 to 125
2,"Cc1cccc(COc2cc(C)c(-c3cccc(COc4ccc(CCC(=O)O)c(F)c4)c3)c(C)c2)n1.Cl [Example 97, 3-[4-({2′,6′-dimethyl-4′-[(6-methylpyridin-2-yl)methoxy]biphenyl-3-yl}methoxy)-2-fluorophenyl]propanoic acid hydrochloride]",55 to 56
3,"Cc1cc(OCC2(C)COC2)cc(C)c1-c1cccc(COc2ccc(CCC(=O)O)c(F)c2)c1 [Example 116, 3-[4-({2′,6′-dimethyl-4′-[(3-methyloxetan-3-yl)methoxy]biphenyl-3-yl}methoxy)-2-fluorophenyl]propanoic acid]",112 to 113

# Molecular target: T1, human GPR40 (Homo sapiens, UniProt O14842)
# T1 construct: expressed in transfected cells
# T1 sequence (O14842 whole entry): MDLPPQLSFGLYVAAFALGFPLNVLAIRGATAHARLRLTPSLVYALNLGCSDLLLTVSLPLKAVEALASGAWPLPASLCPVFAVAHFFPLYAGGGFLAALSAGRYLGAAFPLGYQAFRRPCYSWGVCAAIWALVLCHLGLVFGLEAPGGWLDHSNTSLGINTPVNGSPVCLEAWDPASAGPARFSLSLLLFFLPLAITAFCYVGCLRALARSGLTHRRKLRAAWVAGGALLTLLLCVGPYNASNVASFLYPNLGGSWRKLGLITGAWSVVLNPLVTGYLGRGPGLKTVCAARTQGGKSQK
# Assay: Determination of EC50 against human GPR40: changes in intracellular calcium concentration by FLIPR in CHO cells stably expressing human GPR40
# Type: cell-based
# Conditions: CHO cell line stably expressing human GPR40, Fluo3-AM, read-out: EC50 (Receptor Function Modulating Action On GPR40)
# Procedure: Determination of EC50 of the Compound of the Present Invention Against Human GPR40
# For determination of EC50, CHO cell line that stably expressed human GPR40 was used. Unless otherwise indicated, the CHO cell line was cultured using α-MEM medium (Invitrogen) containing 10% fetal calf serum (Invitrogen).
# The cells cultured to nearly confluent were rinsed with PBS (Invitrogen) on the previous day of the assay, peeled off with 0.05% Trypsin-EDTA solution (Invitrogen) and recovered by centrifugation. The number of the obtained cells was counted, and the cells were diluted such that 3×10^5 cells were contained per 1 mL of the medium, dispensed to a black welled 96-well plate (coster) by 100 μL per well and cultured overnight in a CO2 incubator. Various test compounds were added to the CHO cells thus prepared, and the changes in the intracellular calcium concentration was measured using FLIPR (Molecular Device). The below-mentioned pre-treatment was applied to measure changes in the intracellular calcium concentration by FLIPR.
# An assay buffer for adding a fluorescence dye Fluo3-AM (DOJIN) to the cells, or for washing the cells immediately before FLIPR assay was prepared. To a solution of 1M HEPES (pH 7.4, DOJIN, 20 mL) added to HBSS (Invitrogen, 1000 mL) (hereinafter HBSS/HEPES solution) was added a solution (10 mL) obtained by dissolving probenecid (Sigma, 710 mg) in 1N NaOH (5 mL), and adding and mixing an HBSS/HEPES solution (5 mL), and the resulting solution was used as an assay buffer. Fluo3-AM (50 μg) was dissolved in dimethylsulfoxide (Wako, 21 μL), and an equivalent amount of 20% pluronic acid (Molecular Probes) was added and mixed. The solution was added to the assay buffer (10.6 mL) supplemented with fetal calf serum (105 μL) to give a fluorescence dye solution. […], the medium of the CHO cells newly inoculated to the black welled 96-well plate was removed, the fluorescence dye solution was immediately dispensed by 100 μL per well and the cells were cultured in a CO2 incubator for 1 hr to allow intake of the fluorescence dye by the cells. The cells after the culture were washed with the above-mentioned assay buffer and set on FLIPR. The test compound was diluted with dimethylsulfoxide in advance, dispensed to polypropylene 96-well plate (sample plate) by 2 μL, and cryopreserved at −20° C. To the thawed sample plate was added an assay buffer containing 0.015% CHAPS (DOJIN) by 198 μL, and simultaneously set on FLIPR together with the cell plate. After the aforementioned pre-treatment, changes in the intracellular calcium concentration upon addition of various test compounds was measured by FLIPR. Based on the results, a dose-response curve of each test compound was formed and EC50 was calculated.
row,Structure (SMILES),pEC50
1,"Cc1cc(OS(C)(=O)=O)cc(C)c1-c1cccc(COc2ccc(CCC(=O)O)c(F)c2)c1 [Example 102, 3-[4-({2′,6′-dimethyl-4′-[(methylsulfonyl)oxy]biphenyl-3-yl}methoxy)-2-fluorophenyl]propanoic acid]",7.82
2,"Cc1cc(OCc2ccccc2)cc(C)c1-c1cccc(COc2ccc(CCC(=O)O)cc2)c1 [Example 39, 3-[4-[[4′-(benzyloxy)-2′,6′-dimethylbiphenyl-3-yl]methoxy]phenyl]propanoic acid]",7.49
3,"Cc1cc(OCC2(O)CCS(=O)(=O)CC2)cc(C)c1-c1cccc(COc2ccc(CCC(=O)O)c(F)c2)c1 [Example 100, 3-[2-fluoro-4-({4′-[(4-hydroxy-1,1-dioxidotetrahydro-2H-thiopyran-4-yl)methoxy]-2′,6′-dimethylbiphenyl-3-yl}methoxy)phenyl]propanoic acid]",7.77
4,"Cc1cc(OC2CCS(=O)(=O)CC2)cc(C)c1-c1cccc(COc2ccc(CCC(=O)O)c(F)c2)c1 [Example 114, 3-[4-({4′-[(1,1-dioxidotetrahydro-2H-thiopyran-4-yl)oxy]-2′,6′-dimethylbiphenyl-3-yl}methoxy)-2-fluorophenyl]propanoic acid]",7.70
5,"Cc1cccc(COc2cc(C)c(-c3cccc(COc4ccc(CCC(=O)O)c(F)c4)c3)c(C)c2)n1.Cl [Example 97, 3-[4-({2′,6′-dimethyl-4′-[(6-methylpyridin-2-yl)methoxy]biphenyl-3-yl}methoxy)-2-fluorophenyl]propanoic acid hydrochloride]",7.64
6,"Cc1cc(OCCc2scnc2C)ccc1-c1cccc(COc2ccc(CCC(=O)O)cc2)c1 [Example 14, 3-[4-({2′-methyl-4′-[2-(4-methyl-1,3-thiazol-5-yl)ethoxy]biphenyl-3-yl}methoxy)phenyl]propanoic acid]",8.00
7,"CCS(=O)(=O)CCOc1cc(C)c(-c2cccc(COc3ccc(CCC(=O)O)c(F)c3)c2)c(C)c1 [Example 86, 3-[4-({4′-[2-(ethylsulfonyl)ethoxy]-2′,6′-dimethylbiphenyl-3-yl}methoxy)-2-fluorophenyl]propanoic acid]",7.49
8,"Cc1cc(C)c(-c2cccc(COc3ccc(CCC(=O)O)c(F)c3)c2)c(COc2ccc(F)cc2)c1 [Example 54, 3-{2-fluoro-4-[(2′-(4-fluorophenoxymethyl)-4′,6′-dimethylbiphenyl-3-yl)methoxy]phenyl}propanoic acid]",7.31
9,"Cc1cc(Cl)ccc1-c1cccc(COc2ccc(CCC(=O)O)cc2)c1 [Example 33, 3-[4-[(4′-chloro-2′-methylbiphenyl-3-yl)methoxy]phenyl]propanoic acid]",8.21
10,"CCOCCOc1cc(C)c(-c2cccc(COc3ccc(CC(F)(F)C(=O)O)cc3)c2)c(C)c1 [Example 75, 3-(4-{[4′-(2-ethoxyethoxy)-2′,6′-dimethylbiphenyl-3-yl]methoxy}phenyl)-2,2-difluoropropanoic acid]",7.80
11,"COc1ccc(COc2ccc(CCC(=O)O)cc2)cc1-c1ccc(C)cc1C [Example 49, 3-(4-((6-methoxy-2′,4′-dimethylbiphenyl-3-yl)methoxy)phenyl)propanoic acid]",7.96
12,"Cc1cc(OCCCN2CCCC2=O)cc(C)c1-c1cccc(COc2ccc(CCC(=O)O)c(F)c2)c1 [Example 90, 3-[4-({2′,6′-dimethyl-4′-[3-(2-oxopyrrolidin-1-yl)propoxy]biphenyl-3-yl}methoxy)-2-fluorophenyl]propanoic acid]",7.47

# Reference: US7456218B2, “3-(4-benzyloxyphenyl) propanoic acid derivatives” (Takeda Pharmaceutical Company Limited, priority 2003, dated 2008)
